Experimental data reported in patent US20210300943A1, “OGA INHIBITOR COMPOUNDS” (Janssen Pharmaceutica NV, priority 2018, published 2021).

Target: T1, OGA (Mus musculus, UniProt Q9EQQ9)
T1 construct: from tissue; host or cells: mouse brain (right hemisphere sagittal sections, forebrain area)
T1 sequence (Q9EQQ9 1-916): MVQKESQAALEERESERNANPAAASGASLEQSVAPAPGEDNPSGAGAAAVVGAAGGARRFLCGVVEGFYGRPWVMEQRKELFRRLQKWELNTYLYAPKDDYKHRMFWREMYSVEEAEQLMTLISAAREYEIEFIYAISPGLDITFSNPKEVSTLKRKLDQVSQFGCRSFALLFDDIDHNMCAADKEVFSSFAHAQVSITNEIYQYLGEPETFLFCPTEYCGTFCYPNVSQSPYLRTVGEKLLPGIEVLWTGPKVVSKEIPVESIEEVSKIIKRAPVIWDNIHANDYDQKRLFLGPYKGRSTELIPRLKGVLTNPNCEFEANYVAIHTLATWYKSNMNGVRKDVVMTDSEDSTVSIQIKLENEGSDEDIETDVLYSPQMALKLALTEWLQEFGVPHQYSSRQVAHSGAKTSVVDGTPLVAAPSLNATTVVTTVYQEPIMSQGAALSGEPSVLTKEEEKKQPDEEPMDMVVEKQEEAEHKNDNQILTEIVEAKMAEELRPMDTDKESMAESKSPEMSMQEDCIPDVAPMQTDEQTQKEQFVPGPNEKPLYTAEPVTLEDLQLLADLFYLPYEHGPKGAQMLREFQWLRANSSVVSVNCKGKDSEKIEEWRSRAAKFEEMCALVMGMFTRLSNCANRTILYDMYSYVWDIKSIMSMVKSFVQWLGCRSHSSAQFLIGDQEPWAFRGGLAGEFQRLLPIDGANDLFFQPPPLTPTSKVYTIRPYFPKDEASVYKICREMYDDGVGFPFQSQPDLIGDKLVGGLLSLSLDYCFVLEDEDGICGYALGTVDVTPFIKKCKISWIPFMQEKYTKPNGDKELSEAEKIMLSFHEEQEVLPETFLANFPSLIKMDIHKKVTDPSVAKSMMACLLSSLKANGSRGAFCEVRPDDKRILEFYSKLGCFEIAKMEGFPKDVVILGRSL
Assay: Ex vivo OGA occupancy assay using [3H]-ligand
Format: in vivo
Settings: po, male NMRI or C57Bl6j mice, p.o., 24 h after administration, forebrain area of brain sections, 3 nM [3H]-ligand, normalised to vehicle, read-out: Occupancy (% +/- sd)
Experimental: Ex Vivo Oga Occupancy Assay Using [^3H]-Ligand
Drug Treatment and Tissue Preparation
Male NMRI or C57Bl6j mice were treated by oral (p.o.) administration of vehicle or compound. Animals were sacrificed 24 hours after administration. Brains were immediately removed from the skull, hemispheres were separated and the right hemisphere, for ex vivo OGA occupancy assay, was rapidly frozen in dry-ice cooled 2-methylbutane (−40° C.). […] sagittal sections were cut using a Leica CM 3050 cryostat-microtome (Leica, Belgium), thaw-mounted on microscope slides (SuperFrost Plus Slides, Thermo Fisher Scientific) and stored at −20° C. until use. After thawing, sections were dried under a cold stream of air. The sections were not washed prior to incubation. The 10 minutes incubation with 3 nM [^3H]-ligand was rigorously controlled. All brain sections (from compound-treated and vehicle-treated animals) were incubated in parallel. […]
Quantitative autoradiography and data analysis Radioactivity in the forebrain area of brain slices was measured using a β-imager with M3 vision analysis software (Biospace Lab, Paris). Specific binding was calculated as the difference between total binding and non-specific binding measured in Thiamet-G (10 μM) treated sections. […]

receptor occupancy at 25 mg/kg | Structure (SMILES)
20.7% | Cc1cc([C@H]2CCCN(C(C)c3cnc4c(c3)OCCN4)C2)cc(C)n1 (single isomer, unassigned) [Product 135]
92.7% | Cc1cc(OC[C@H]2CCCN(C(C)c3nc4c(cc3F)OCCO4)C2)cc(C)n1 (single isomer, unassigned) [Product 155]
